Reference: patent publication US5516784A, “Anti-HIV (AIDS) agents” (Schering Corporation, priority 1994, dated 1996)
≈ marks a conversion by molar mass, not a printed value.

Experiments:
HIV1 protease [1] = target: T1, HIV1 protease (Human immunodeficiency virus type 1 group M subtype B, UniProt P04585); assay: Test 1: inhibition of proteolytic activity of HIV-1 protease (HPLC); type: biochemical; set-up: proteolytic activity of HIV-1 protease
Experimental: TEST I-INHIBITION OF PROTEOLYTIC ACTIVITY OF HIV-1-PROTEASE
The ability of compounds of the invention to inhibit the proteolytic activity of HIV-1 protease was determined by using the method of Louis, et al., Biochem. Biophys. Res. Comm. 159:87-94, (1989), which is herein incorporated by reference. In using the method of Louis et al., HIV Substrate III, His-Lys-Ala-Arg-VaI-Leu-pNO2 Phe-Glu-Ala-Nle-Ser-NH2 purchased from Bachem Bioscience, Inc. Philadelphia, Pa. was used in place of the nonapeptide substrate […]amide.

HIV-1, isolate III B = assay: Test 2: inhibition of the growth of HIV-1 in tissue culture cells (CEM-SS, syncytia formation); type: cell-based; conditions: Human immunodeficiency virus 1, 168 h, 7 days, read-out: HIVMIC IC50
Text: TEST 2-INHIBITION OF THE GROWTH OF HIV-1 IN TISSUE CULTURE CELLS
This test measured the capability of the compounds to inhibit the growth of HIV-1 in tissue culture cells. CEM-SS cells (human T-lymphocyte derived tissue culture cells) were infected with HIV-1, isolate III B which was produced in tissue culture. After 7 days, the virus has killed the cells as monitored by extensive syncytia formation (cell fusion). The test measured the capability of the chemical synthetic compounds to prevent syncytia formation and cell death. CEM cells were grown at 37° C. in an atmosphere of 5% CO2. HIV isolate III B was prepared by growth in and crude purification from CEM cells. The chemical synthetic compound was added to 96 well microtiter plates and diluted in varying steps across the wells of the plate. Cells and virus were added to each well and the concentration of the chemical synthetic compound required to inhibit syncytia formation by 50% (the IC50) after 7 days was determined. The viability of CEM cells which are not infected with HIV-1 isolate III B was simultaneously determined by the MTT assay, as described in Mossman, J. Immunolog. Methods 65:55-63, 1983, which is herein incorporated by reference.

HIV1 protease [2] = target: T1, HIV1 protease; assay: Test 3: inhibition of proteolytic activity of HIV-1 protease by scintillation proximity assay (SPA); type: biochemical; conditions: SPA; room temperature, 40 minutes; read-out: Enzyme Assays (SPA) IC50
Text: TEST 3-INHIBITION OF PROTEOLYTIC ACTIVITY OF HIV-1-PROTEASE AS DETERMINED BY SCINTILLATION […] ASSAY (SPA).
This is an alternative assay to test #1 and is used to determine the ability of compounds to inhibit the HIV1 protease activity. The SPA assay for HIV1 protease has been developed by Amersham Corporation, Arlington Heights, Ill., and is available for commercial use. In this system the substrate for HIV1 protease, AcN-(I^125)[…]SPA bead, is cleaved by the HIV1 protease at the Phe-Phe bond releasing the I^125 -labelled peptide fragment from the SPA bead. This event causes removal of detectable signal from the microsphere bead indicated by reduction in radioactivity (measured in CPM), which is proportional to the proteolytic activity. The substrate, and the HIV 1 protease were incubated in presence of synthetic compound in various dilutions at room temperature for 40 minutes, and the concentration of the compound required to inhibit the proteolytic activity by 50% (IC50) was determined.

[3] = HPLC, HIV Substrate III, read-out: Enzyme Assays (HPLC) IC50

IC50 (HIV1 protease [1]; [3])	IC50 (HIV-1, isolate III B)	SMILES	further results
54 nM	0.537 µg/mL (≈ 0.837 µM)	CC(C)(C)NC(=O)c1ccccc1SC[C@@H](O)[C@H](Cc1ccccc1)NC(=O)[C@H](CC(N)=O)NC(=O)c1ccc2ccccc2n1 [Compound 3]	–
50 nM	5.69 µg/mL (≈ 8.87 µM)	CC(C)(C)NC(=O)c1ccccc1OC[C@H](O)[C@H](Cc1ccccc1)NC(=O)[C@H](CC(N)=O)NC(=O)c1ccc2ccccc2[n+]1[O-] [Compound 7]	–
–	9.1 µg/mL (≈ 13.8 µM)	CC(C)(C)NC(=O)c1ccccc1SC[C@H](O)[C@H](Cc1ccc(O)cc1)NC(=O)[C@H](CC(N)=O)NC(=O)c1ccc2ccccc2n1 [Compound 79]	IC50 (HIV1 protease [2]): > 500 nM
–	17.5 µg/mL (≈ 30.3 µM)	CCC[C@H](NC(=O)[C@H](CC(N)=O)NC(=O)c1ccc2ccccc2n1)[C@H](O)COc1ccccc1C(=O)NC(C)(C)C [Compound 77]	–
> 100 nM	–	CC(C)(C)NC(=O)c1ccccc1SC[C@H](O)[C@H](Cc1ccccc1)NC(=O)[C@H](CC(N)=O)NC(=O)c1cccnc1O [Compound 58]	–
–	–	CC(C)(C)NC(=O)c1ccccc1SCC(O)C(Cc1ccccc1)NC(=O)OC(C)(C)C (stereo not shown)	IC50 (HIV1 protease [1]; intermediate compound, read-out: IC50 in Test 1, Inhibition of Proteolytic Activity of HIV-1-Protease): 3000 nM
> 5 nM	–	CC(C)(C)NC(=O)c1ccccc1SC[C@H](O)[C@H](Cc1ccccc1)NC(=O)[C@H](Cc1c[nH]c2ccccc12)NC(=O)c1ccc2ccccc2n1 [Compound 51]	–
> 100 nM	–	CC(C)(C)NC(=O)c1ccccc1SC[C@H](O)[C@H](Cc1ccccc1)NC(=O)[C@H](CC(N)=O)NC(=O)c1ccc(O)cn1 [Compound 56]	–
–	4.95 µg/mL (≈ 8.19 µM)	CC(C)(C)NC(=O)c1ccccc1OC[C@H](O)[C@H](Cc1ccccc1)NC(=O)[C@H](CC(N)=O)NC(=O)OCc1ccccc1 [IN 1]	IC50 (HIV1 protease [2]): 80 nM
> 100 nM	–	CC(C)(C)NC(=O)c1ccccc1SC[C@H](O)[C@H](Cc1ccccc1)NC(=O)[C@H](CCC(N)=O)NC(=O)c1ccc2ccccc2n1 [Compound 48]	–
> 100 nM	–	CC(C)(C)NC(=O)c1ccccc1SC[C@H](O)[C@H](Cc1ccccc1)NC(=O)[C@H](CC(N)=O)NC(=O)c1ccc[n+]([O-])c1 [Compound 57]	–
> 100 nM	–	COc1ccc(C[C@H](NC(=O)OC(C)(C)C)C(=O)N[C@@H](Cc2ccccc2)[C@@H](O)CSc2ccccc2C(=O)NC(C)(C)C)cc1 [IN 2]	–
> 50 nM	–	NC(=O)C[C@H](NC(=O)c1ccc2ccccc2n1)C(=O)N[C@@H](Cc1ccccc1)[C@H](O)CSc1ccccc1C(=O)NC12CC3CC(CC(C3)C1)C2 [Compound 30]	–
> 100 nM	–	CCn1cc(C(=O)N[C@@H](CC(N)=O)C(=O)N[C@@H](Cc2ccccc2)[C@@H](O)CSc2ccccc2C(=O)NC(C)(C)C)c(=O)c2ccc(C)nc21 [Compound 53]	–
> 100 nM	–	CC(C)(C)NC(=O)c1ccccc1SC[C@H](O)[C@H](Cc1ccccc1)NC(=O)[C@H](CCC(N)=O)NC(=O)OC(C)(C)C [IN 3]	–
> 500 nM	–	CCCCNC(=O)c1ccccc1S(=O)(=O)C[C@H](O)[C@H](Cc1ccccc1)NC(=O)[C@H](CC(N)=O)NC(=O)c1ccc2ccccc2n1 [Compound 9]	–
> 100 nM	–	CC(C)(C)NC(=O)c1ccccc1SC[C@H](O)[C@H](Cc1ccccc1)NC(=O)[C@H](CC(N)=O)NC(=O)c1ccccn1 [Compound 54]	–
> 100 nM	–	CN(C)C(=O)C[C@H](NC(=O)c1ccc2ccccc2n1)C(=O)N[C@@H](Cc1ccccc1)[C@@H](O)CSc1ccccc1C(=O)NC(C)(C)C [Compound 41]	–
> 100 nM	–	COc1ccc(C[C@H](NC(=O)c2ccc3ccccc3n2)C(=O)N[C@@H](Cc2ccccc2)[C@@H](O)CSc2ccccc2C(=O)NC(C)(C)C)cc1 [Compound 43]	–
> 500 nM	–	CC(C)(C)NC(=O)c1ccccc1SC[C@H](O)[C@H](Cc1ccccc1)NC(=O)[C@H](Cc1ccccc1)NC(=O)c1ccc2ccccc2n1 [Compound 33]	–
–	0.68 µg/mL (≈ 1.05 µM)	CC(C)(C)NC(=O)c1ccccc1SC[C@@H](O)[C@H](CC1CCCCC1)NC(=O)[C@H](CC(N)=O)NC(=O)c1ccc2ccccc2n1 [Compound 78]	IC50 (HIV1 protease [2]): 230 nM

SMILES	IC50 (HIV1 protease [1]; [3])	IC50 (HIV-1, isolate III B)	further results
CC(C)(C)NC(=O)c1ccccc1SC[C@H](O)[C@H](Cc1ccccc1)NC(=O)[C@H](CC(N)=O)NC(=O)c1ccc2ccccc2c1 [Compound 52]	–	8.58 µg/mL (≈ 13.4 µM)	IC50 (HIV1 protease [2]): 390 nM
